{
  "source": "patent US9695155B2",
  "about": "“Herbicidal substituted pyrimidinyloxy benzene compounds” (E. I. DU PONT DE NEMOURS AND COMPANY, priority 2013, dated 2017)",
  "key": {"[1]": {"system": "giant foxtail", "assay": "Test A preemergence", "assay_type": "in vivo, Setaria faberii", "in_short": "(§1)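 Visual injury scored 0–100 (100 = complete control) against untreated controls about 10 days after treatment in a greenhouse. Test chemicals, formulated with surfactant in non-phytotoxic solvent, were sprayed on soil preemergence or on 2-10 cm, one- to two-leaf plants postemergence.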"}, "[2]": {"system": "wheat", "assay": "Test A preemergence", "assay_type": "in vivo, Triticum aestivum", "in_short": "as §1"}, "[3]": {"system": "corn", "assay": "Test A preemergence", "assay_type": "in vivo, Zea mays", "in_short": "as §1"}, "[4]": {"system": "large (Lg) crabgrass", "assay": "Test A postemergence", "assay_type": "in vivo, Digitaria sanguinalis", "conditions": "Digitaria sanguinalis, post-emergence, 240 h, read-out: Plant response rating, Crabgrass, Large", "in_short": "as §1"}, "[5]": {"system": "giant foxtail", "assay": "Test A postemergence", "assay_type": "in vivo, Setaria faberii", "conditions": "Setaria faberi, post-emergence, 240 h, read-out: Plant response rating, Foxtail, Giant", "in_short": "as §1"}, "[6]": {"system": "pigweed", "assay": "Test A postemergence", "assay_type": "in vivo, Amaranthus retroflexus", "conditions": "Amaranthus retroflexus, post-emergence, read-out: Plant response rating, Pigweed", "in_short": "as §1"}, "[7]": {"system": "rice", "assay": "Test B flooded paddy test", "assay_type": "in vivo, Oryza sativa", "conditions": "Oryza sativa; Flood, 250 g ai/ha; 0 to 100 scale where 0 is no effect and 100 is complete control; read-out: Plant response rating, Rice", "in_short": "(§2)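 Post-emergence paddy-water application at the 2-leaf stage, with 3 cm flood kept for the whole test. Response was judged visually relative to controls after 13 to 15 greenhouse days, 0 indicating no effect and 100 complete control.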"}, "[8]": {"system": "sedge, umbrella", "assay": "Test B flooded paddy test", "assay_type": "in vivo, Cyperus difformis", "conditions": "Cyperus difformis, Flood, 250 g ai/ha; 0 to 100 scale where 0 is no effect and 100 is complete control; read-out: Plant response rating, Sedge, Umbrella", "in_short": "as §2"}, "[9]": {"system": "barnyardgrass", "assay": "Test B flooded paddy test", "assay_type": "in vivo, Echinochloa crus-galli", "conditions": "Echinochloa crus-galli; Flood, 250 g ai/ha; 0 to 100 scale where 0 is no effect and 100 is complete control; read-out: Plant response rating, Barnyardgrass", "in_short": "as §2"}, "[10]": {"system": "Italian ryegrass", "assay": "Test C postemergence", "assay_type": "in vivo, Lolium multiflorum", "in_short": "(§3)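 Rated visually on 0–100 (100 = complete control) after 13–15 days under glass. Treatments went onto freshly seeded loam/sand soil or onto emerged plants at the 1- to 4-leaf stage, using a surfactant-containing solvent formulation.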"}, "[11]": {"system": "galium", "assay": "Test C postemergence", "assay_type": "in vivo, Galium aparine", "conditions": "Galium, post-emergence", "in_short": "as §3"}, "[12]": {"system": "lambsquarters", "assay": "Test C postemergence", "assay_type": "in vivo, Chenopodium album", "in_short": "as §3"}, "[13]": {"system": "soybean", "assay": "Test C postemergence", "assay_type": "in vivo, Glycine max", "in_short": "as §3"}, "[14]": {"system": "oilseed rape", "assay": "Test C postemergence", "assay_type": "in vivo, Brassica napus", "in_short": "as §3"}, "[15]": {"system": "waterhemp", "assay": "Test C postemergence", "assay_type": "in vivo, Amaranthus rudis", "in_short": "as §3"}, "[16]": {"system": "chickweed", "assay": "Test C postemergence", "assay_type": "in vivo, Stellaria media", "conditions": "Stellaria media, post-emergence", "in_short": "as §3"}, "[17]": {"conditions": "125 g ai/ha, 0 to 100 scale, 0 no effect, 100 complete control"}, "[18]": {"conditions": "500 g ai/ha, 0 to 100 scale where 0 is no effect and 100 is complete control"}, "[19]": {"conditions": "31 g ai/ha, postemergence, visual rating, scale 0 to 100 (0 no effect, 100 complete control), 13 to 15 days"}},
  "data": [
    {"smiles": "N#Cc1cccc(Oc2ncc(Cl)cn2)c1-n1cc(OCC(F)(F)F)cn1", "note": "[Compound 274, 3-[(5-chloro-2-pyrimidinyl)oxy]-2-[4-(2,2,2-trifluoroethoxy)-1H-pyrazol-1-yl]benzonitrile]", "values": [
      {"measurement": "Foxtail, Giant plant response rating (0 to 100 scale)", "setting": "[1]; 125 g ai/ha", "value": 100},
      {"measurement": "pest or weed control at 500 g/ha", "setting": "[1]; Setaria faberi, pre-emergence, 240 h, 500 g ai/ha, 0 to 100 scale where 0 is no effect and 100 is complete control, read-out: Foxtail, Giant plant response rating", "value": 100, "unit": "%"},
      {"measurement": "Wheat plant response rating (0 to 100 scale)", "setting": "[2]; 125 g ai/ha", "value": 40},
      {"measurement": "plant injury at 500 g/ha", "setting": "[2]; Triticum aestivum, pre-emergence, 240 h, 500 g ai/ha, 0 to 100 scale where 0 is no effect and 100 is complete control, read-out: Wheat plant response rating", "value": 80, "unit": "%"},
      {"measurement": "Corn plant response rating (0 to 100 scale)", "setting": "[3]; 125 g ai/ha", "value": 50},
      {"measurement": "plant injury at 500 g/ha", "setting": "[3]; Zea mays, pre-emergence, 240 h, 500 g ai/ha, 0 to 100 scale where 0 is no effect and 100 is complete control, read-out: Corn plant response rating", "value": 50, "unit": "%"},
      {"measurement": "pest or weed control at 125 g/ha", "setting": "[4]; [17]", "value": 90, "unit": "%"},
      {"measurement": "pest or weed control at 500 g/ha", "setting": "[4]; [18]", "value": 90, "unit": "%"},
      {"measurement": "pest or weed control at 125 g/ha", "setting": "[5]; [17]", "value": 90, "unit": "%"},
      {"measurement": "pest or weed control at 500 g/ha", "setting": "[5]; [18]", "value": 90, "unit": "%"},
      {"measurement": "pest or weed control at 125 g/ha", "setting": "[6]; [17]", "value": 100, "unit": "%"},
      {"measurement": "pest or weed control at 500 g/ha", "setting": "[6]; [18]", "value": 100, "unit": "%"},
      {"measurement": "plant injury at 250 g/ha", "setting": "[7]", "value": 60, "unit": "%"},
      {"measurement": "pest or weed control at 250 g/ha", "setting": "[8]", "value": 95, "unit": "%"},
      {"measurement": "pest or weed control at 250 g/ha", "setting": "[9]", "value": 65, "unit": "%"},
      {"measurement": "Ryegrass, Italian plant response rating", "setting": "[10]; [19]", "value": 5},
      {"measurement": "pest or weed control at 16 g/ha", "setting": "[10]; Lolium multiflorum, post-emergence, 16 g ai/ha, postemergence, 0 is no effect, 100 is complete control, read-out: Plant response rating (0 to 100), Ryegrass, Italian", "value": 5, "unit": "%"},
      {"measurement": "pest or weed control at 125 g/ha", "setting": "[10]; Lolium multiflorum, post-emergence, 125 g ai/ha, postemergence, visual rating, scale 0 to 100 (0 no effect, 100 complete control), read-out: Plant response rating, Ryegrass, Italian", "value": 35, "unit": "%"},
      {"measurement": "pest or weed control at 62 g/ha", "setting": "[10]; Lolium multiflorum, post-emergence, Postemergence, 62 g ai/ha, scale 0 to 100 (0 no effect, 100 complete control), 13 to 15 days, read-out: Plant response rating, Ryegrass, Italian", "value": 30, "unit": "%"},
      {"measurement": "pest or weed control at 16 g/ha", "setting": "[11]; 16 g ai/ha, postemergence, 0 is no effect, 100 is complete control, read-out: Plant response rating (0 to 100), Galium", "value": 70, "unit": "%"},
      {"measurement": "pest or weed control at 31 g/ha", "setting": "[11]; 31 g ai/ha, postemergence, visual rating, scale 0 to 100 (0 no effect, 100 complete control), 13 to 15 days, read-out: Galium plant response rating", "value": 80, "unit": "%"},
      {"measurement": "pest or weed control at 125 g/ha", "setting": "[11]; 125 g ai/ha, postemergence, visual rating, scale 0 to 100 (0 no effect, 100 complete control), read-out: Plant response rating, Galium", "value": 98, "unit": "%"},
      {"measurement": "pest or weed control at 62 g/ha", "setting": "[11]; Postemergence, 62 g ai/ha, scale 0 to 100 (0 no effect, 100 complete control), 13 to 15 days, read-out: Plant response rating, Galium", "value": 90, "unit": "%"},
      {"measurement": "Lambsquarters plant response rating", "setting": "[12]; [19]", "value": 95},
      {"measurement": "pest or weed control at 16 g/ha", "setting": "[12]; Chenopodium album, post-emergence, 16 g ai/ha, postemergence, 0 is no effect, 100 is complete control, read-out: Plant response rating (0 to 100), Lambsquarters", "value": 85, "unit": "%"},
      {"measurement": "pest or weed control at 125 g/ha", "setting": "[12]; Chenopodium album, post-emergence, 125 g ai/ha, postemergence, visual rating, scale 0 to 100 (0 no effect, 100 complete control), read-out: Plant response rating, Lambsquarters", "value": 98, "unit": "%"},
      {"measurement": "pest or weed control at 62 g/ha", "setting": "[12]; Chenopodium album, post-emergence, Postemergence, 62 g ai/ha, scale 0 to 100 (0 no effect, 100 complete control), 13 to 15 days, read-out: Plant response rating, Lambsquarters", "value": 95, "unit": "%"},
      {"measurement": "Soybean plant response rating", "setting": "[13]; [19]", "value": 70},
      {"measurement": "Soybean plant response rating (crop injury, 0-100 scale) at 16 g/ha", "setting": "[13]; Glycine max, post-emergence, 16 g ai/ha, postemergence, 0 is no effect, 100 is complete control", "value": 45, "unit": "%"},
      {"measurement": "Soybean plant response rating (crop injury, 0-100 scale) at 125 g/ha", "setting": "[13]; Glycine max, post-emergence, 125 g ai/ha, postemergence, visual rating, scale 0 to 100 (0 no effect, 100 complete control), read-out: Plant response rating, Soybean", "value": 98, "unit": "%"},
      {"measurement": "Soybean plant response rating (crop injury, 0-100 scale) at 62 g/ha", "setting": "[13]; Glycine max, post-emergence, Postemergence, 62 g ai/ha, scale 0 to 100 (0 no effect, 100 complete control), 13 to 15 days", "value": 90, "unit": "%"},
      {"measurement": "Oilseed Rape plant response rating", "setting": "[14]; [19]", "value": 80},
      {"measurement": "plant injury at 16 g/ha", "setting": "[14]; Brassica napus, post-emergence, 16 g ai/ha, postemergence, 0 is no effect, 100 is complete control, read-out: Plant response rating (0 to 100), Oilseed Rape", "value": 60, "unit": "%"},
      {"measurement": "plant injury at 125 g/ha", "setting": "[14]; Brassica napus, post-emergence, 125 g ai/ha, postemergence, visual rating, scale 0 to 100 (0 no effect, 100 complete control), read-out: Plant response rating, Oilseed Rape", "value": 90, "unit": "%"},
      {"measurement": "plant injury at 62 g/ha", "setting": "[14]; Brassica napus, post-emergence, Postemergence, 62 g ai/ha, scale 0 to 100 (0 no effect, 100 complete control), 13 to 15 days, read-out: Plant response rating, Oilseed Rape", "value": 85, "unit": "%"},
      {"measurement": "Waterhemp plant response rating", "setting": "[15]; [19]", "value": 85},
      {"measurement": "pest or weed control at 16 g/ha", "setting": "[15]; Amaranthus tuberculatus, post-emergence, 16 g ai/ha, postemergence, 0 is no effect, 100 is complete control, read-out: Plant response rating (0 to 100), Waterhemp", "value": 70, "unit": "%"},
      {"measurement": "pest or weed control at 125 g/ha", "setting": "[15]; Amaranthus tuberculatus, post-emergence, 125 g ai/ha, postemergence, visual rating, scale 0 to 100 (0 no effect, 100 complete control), read-out: Plant response rating, Waterhemp", "value": 98, "unit": "%"},
      {"measurement": "pest or weed control at 62 g/ha", "setting": "[15]; Amaranthus tuberculatus, post-emergence, Postemergence, 62 g ai/ha, scale 0 to 100 (0 no effect, 100 complete control), 13 to 15 days, read-out: Plant response rating, Waterhemp", "value": 95, "unit": "%"},
      {"measurement": "pest or weed control at 16 g/ha", "setting": "[16]; 16 g ai/ha, postemergence, 0 is no effect, 100 is complete control, read-out: Plant response rating (0 to 100), Chickweed", "value": 70, "unit": "%"},
      {"measurement": "pest or weed control at 31 g/ha", "setting": "[16]; 31 g ai/ha, postemergence, visual rating, scale 0 to 100 (0 no effect, 100 complete control), 13 to 15 days, read-out: Chickweed plant response rating", "value": 70, "unit": "%"},
      {"measurement": "pest or weed control at 125 g/ha", "setting": "[16]; 125 g ai/ha, postemergence, visual rating, scale 0 to 100 (0 no effect, 100 complete control), read-out: Plant response rating, Chickweed", "value": 98, "unit": "%"},
      {"measurement": "pest or weed control at 62 g/ha", "setting": "[16]; Postemergence, 62 g ai/ha, scale 0 to 100 (0 no effect, 100 complete control), 13 to 15 days, read-out: Plant response rating, Chickweed", "value": 90, "unit": "%"}
    ]}
  ]
}
